# PubChem BioAssay (NCI)
#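 Compound exposure: 48 hours, 5 concentrations, 96-well plates. Here, GI50 denotes the concentration required for 50% inhibition of growth. TGI denotes the concentration required for complete inhibition of growth.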
# Columns and labels:
# Assay in all cases: growth of human tumour cells (NCI), 48 h
# SF-268 CNS = system: SF-268 CNS
# SK-MEL-28 melanoma = system: SK-MEL-28 melanoma
# UACC-257 melanoma = system: UACC-257 melanoma
# NCI-H460 lung = system: NCI-H460 lung
# SF-539 CNS = system: SF-539 CNS
# KM12 colon = system: KM12 colon
# SK-OV-3 ovarian = system: SK-OV-3 ovarian
# NCI-H23 lung = system: NCI-H23 lung
# RXF 393 renal = system: RXF 393 renal
# EKVX NSCLC = system: EKVX NSCLC
Structure (SMILES),TGI (SF-268 CNS),TGI (SK-MEL-28 melanoma),TGI (UACC-257 melanoma),TGI (NCI-H460 lung),TGI (SF-539 CNS),TGI (KM12 colon),TGI (SK-OV-3 ovarian),TGI (NCI-H23 lung),TGI (RXF 393 renal),TGI (EKVX NSCLC),GI50 (SF-268 CNS),GI50 (SK-MEL-28 melanoma),GI50 (UACC-257 melanoma),GI50 (RXF 393 renal),GI50 (NCI-H460 lung),GI50 (KM12 colon),GI50 (SK-OV-3 ovarian)
Cc1cc(N(CCC#N)CCC#N)ccc1/C=C1N=C(/C=C/c2ccccc2)N(c2ccc(S(N)(=O)=O)cc2)C\1=O,> 100 µM,> 100 µM,> 100 µM,> 100 µM,> 100 µM,> 100 µM,> 100 µM,> 100 µM,–,–,–,–,–,–,–,–,–
COc1ccc(C(OC(=O)[C@H](O[Si](C)(C)C(C)(C)C)[C@@H](NC(=O)c2ccccc2)c2ccccc2)c2ccc(OC)cc2)cc1,> 100 µM,–,> 100 µM,> 100 µM,> 100 µM,> 100 µM,–,> 100 µM,> 100 µM,> 100 µM,–,–,–,–,–,–,–
O=S1(=O)OCCOS(=O)(=O)C1(Cl)Cl,> 100 µM,> 100 µM,> 100 µM,–,> 100 µM,> 100 µM,> 100 µM,> 100 µM,–,> 100 µM,–,–,–,–,–,–,–
COc1ccc(C2CC(c3ccc(NS(=O)(=O)c4cc([N+](=O)[O-])ccc4C)cc3)=NN2S(=O)(=O)c2cc([N+](=O)[O-])ccc2C)cc1 (stereo unspecified),79.9 µM,> 100 µM,> 100 µM,> 100 µM,–,> 100 µM,> 100 µM,78.7 µM,> 100 µM,> 100 µM,–,–,–,–,–,–,–
Fc1cc(C2=Nn3c(CNc4ccc(Cl)cc4)nnc3S/C2=C\c2ccc(-c3ccc(Cl)cc3)o2)c(Cl)cc1Cl,> 100 µM,> 100 µM,> 100 µM,> 100 µM,–,> 100 µM,–,> 100 µM,61.4 µM,67.8 µM,–,–,–,–,–,–,–
Cc1cn(CC2=NC3CCCCC3N2)c(=O)[nH]c1=O (stereo unspecified),> 100 µM,> 100 µM,> 100 µM,> 100 µM,–,–,> 100 µM,> 100 µM,> 100 µM,> 100 µM,–,–,–,–,–,–,–
CC(NC(=O)C(N)CC(=O)O)C(=O)OC12CC3CC(CC(C3)C1)C2 (stereo unspecified),> 100 µM,> 100 µM,> 100 µM,> 100 µM,–,> 100 µM,> 100 µM,> 100 µM,> 100 µM,> 100 µM,–,–,–,–,–,–,–
CNCCCn1c2c(c3ccc(Cl)cc3c1=O)C(=O)c1cc(OC)cnc1-2,2.19 µM,3.15 µM,11.1 µM,1.25 µM,–,2.43 µM,2.08 µM,–,2.84 µM,–,0.397 µM,1.62 µM,2.24 µM,1.3 µM,0.0462 µM,1.1 µM,0.658 µM
CC1=NN(c2cccc(Cl)c2)C2(C1=Cc1cccs1)C(Cl)C(=O)N2c1nc2ccccc2s1 (stereo unspecified),47.9 µM,> 100 µM,57.3 µM,45.4 µM,30.5 µM,> 100 µM,–,47.2 µM,45.8 µM,42.8 µM,–,–,–,–,–,–,–
CCCC(=O)N(C)N=Nc1ccc(C(=O)OCC)cc1,> 100 µM,> 100 µM,> 100 µM,> 100 µM,> 100 µM,> 100 µM,–,> 100 µM,> 100 µM,> 100 µM,–,–,–,–,–,–,–
CN1CN(c2ccccc2)C2(CCN(C3Nc4ccccc4O3)CC2)C1=O (stereo unspecified),61 µM,47.2 µM,33.7 µM,43.9 µM,28.9 µM,51.5 µM,48.1 µM,54.9 µM,35.5 µM,–,–,–,–,–,–,–,–
Cc1ccc(C(=O)O)c(/C=C2\Cc3cc(C)cc(C)c3C2=O)c1,> 100 µM,> 100 µM,> 100 µM,> 100 µM,> 100 µM,> 100 µM,–,–,> 100 µM,> 100 µM,–,–,–,–,–,–,–
COc1ccc(-c2[nH]c(-c3ccc(OC)cc3)c(-c3ccccn3)c2-c2ccccn2)cc1,> 100 µM,–,> 100 µM,> 100 µM,> 100 µM,> 100 µM,> 100 µM,> 100 µM,> 100 µM,> 100 µM,–,–,–,–,–,–,–
COc1ccc(/C=C2\C[C@H]3[C@@H]4CC=C5C[C@@H](OC(C)=O)CC[C@]5(C)[C@H]4CC[C@]3(C)C2=O)cc1OC,> 100 µM,> 100 µM,> 100 µM,> 100 µM,> 100 µM,> 100 µM,–,> 100 µM,> 100 µM,66.5 µM,–,–,–,–,–,–,–
COc1ccc(C(=O)N2CCN(c3ccc4c(c3)OCC(=O)N4)CC2)cc1OC,> 100 µM,> 100 µM,> 100 µM,> 100 µM,> 100 µM,> 100 µM,> 100 µM,> 100 µM,–,> 100 µM,–,–,–,–,–,–,–
O=S(=O)(Nc1nccs1)c1ccc([As](=O)(O)O)cc1,> 100 µM,> 100 µM,–,> 100 µM,–,> 100 µM,> 100 µM,> 100 µM,> 100 µM,> 100 µM,–,–,–,–,–,–,–
O=C(CSc1nnc(Cc2ccccc2)o1)Nc1ccc(Cl)cc1[N+](=O)[O-],40.2 µM,29 µM,36.3 µM,–,–,–,> 100 µM,36 µM,33.4 µM,40.1 µM,–,–,–,–,–,–,–
Cc1ccc(N=NN(C)C(C)C(O)Cc2ccccc2)cc1 (stereo unspecified),> 100 µM,> 100 µM,> 100 µM,> 100 µM,–,> 100 µM,> 100 µM,> 100 µM,> 100 µM,> 100 µM,–,–,–,–,–,–,–
Cc1ccc(NC(=O)CC(=O)N2N=C(N3CCCCC3)CC2c2ccccc2)cc1 (stereo unspecified),> 100 µM,> 100 µM,> 100 µM,> 100 µM,–,> 100 µM,–,> 100 µM,> 100 µM,> 100 µM,–,–,–,–,–,–,–
Cc1n[nH]c(=O)n1Nc1ccccc1,> 100 µM,> 100 µM,> 100 µM,> 100 µM,> 100 µM,> 100 µM,> 100 µM,> 100 µM,–,> 100 µM,–,–,–,–,–,–,–
C=CCOC1CC(n2cnc3c(N)ncnc32)OC1CO (stereo unspecified),> 100 µM,> 100 µM,> 100 µM,> 100 µM,> 100 µM,> 100 µM,–,> 100 µM,–,–,–,–,–,–,–,–,–
CC1(c2nc3ccccc3[nH]2)CCC(C#N)C(C)(C)O1 (stereo unspecified),> 100 µM,> 100 µM,> 100 µM,–,> 100 µM,> 100 µM,> 100 µM,> 100 µM,> 100 µM,> 100 µM,–,–,–,–,–,–,–
